Data taken from publication PMC11480411, “Mucosal sugars delineate pyrazine vs pyrazinone autoinducer signaling in Klebsiella oxytoca” (Nature Communications, 2024).

Experiments:
Experiment in all cases: PRESTO-Tango GPCR screen
Format in all cases: cell-based
Conditions in all cases: 100 µM
DRD2 = molecular target: T1, DRD2 (Homo sapiens, UniProt P14416)
T1 construct: purchased PRESTO-Tango GPCR kit (Roth lab / Addgene)
Summary of the method: (§1)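 Each receptor was expressed from a Tango plasmid in HTLA cells, which stably carry β-arrestin-TEV and a tTA-driven luciferase reporter. Single-point screening used 100 μM final compound for 20 h, and the signal was normalised to PBS control. Concentration-response testing spanned 10^−4 to 10^−15 M.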

AVPR1B = molecular target: T2, AVPR1B (Homo sapiens, UniProt P47901)
T2 construct: purchased PRESTO-Tango GPCR kit (Roth lab / Addgene)
Summary of the method: as §1

MCHR1 = molecular target: T3, MCHR1 (Homo sapiens, UniProt Q99705)
T3 construct: purchased PRESTO-Tango GPCR kit (Roth lab / Addgene)
Summary of the method: as §1

GPR83 = molecular target: T4, GPR83 (Homo sapiens, UniProt Q9NYM4)
T4 construct: purchased PRESTO-Tango GPCR kit (Roth lab / Addgene)
Summary of the method: as §1

CHRM4 = molecular target: T5, CHRM4 (Homo sapiens, UniProt P08173)
T5 construct: purchased PRESTO-Tango GPCR kit (Roth lab / Addgene)
Summary of the method: as §1

GPR37 = molecular target: T6, GPR37 (Homo sapiens, UniProt O15354)
T6 construct: purchased PRESTO-Tango GPCR kit (Roth lab / Addgene)
Summary of the method: as §1

HTR7 = molecular target: T7, HTR7 (Homo sapiens, UniProt P34969)
T7 construct: purchased PRESTO-Tango GPCR kit (Roth lab / Addgene)
Summary of the method: as §1

GPR151 = molecular target: T8, GPR151 (Homo sapiens, UniProt Q8TDV0)
T8 construct: purchased PRESTO-Tango GPCR kit (Roth lab / Addgene)
Summary of the method: as §1

CCRL2 = molecular target: T9, CCRL2 (Homo sapiens, UniProt O00421)
T9 construct: purchased PRESTO-Tango GPCR kit (Roth lab / Addgene)
T9 sequence (O00421 whole entry): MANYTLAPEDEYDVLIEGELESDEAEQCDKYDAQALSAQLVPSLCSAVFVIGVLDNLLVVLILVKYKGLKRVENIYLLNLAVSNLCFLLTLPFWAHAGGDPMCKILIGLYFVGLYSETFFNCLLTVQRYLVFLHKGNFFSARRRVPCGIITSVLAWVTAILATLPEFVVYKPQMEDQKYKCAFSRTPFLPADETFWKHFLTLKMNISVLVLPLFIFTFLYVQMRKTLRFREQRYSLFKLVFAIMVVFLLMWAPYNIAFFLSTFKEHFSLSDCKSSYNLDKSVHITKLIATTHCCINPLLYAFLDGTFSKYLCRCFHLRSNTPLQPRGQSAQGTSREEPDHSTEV
Summary of the method: as §1

GPR111 = molecular target: T10, GPR111 (Homo sapiens, UniProt Q8IZF7)
T10 construct: purchased PRESTO-Tango GPCR kit (Roth lab / Addgene)
T10 sequence (Q8IZF7 whole entry): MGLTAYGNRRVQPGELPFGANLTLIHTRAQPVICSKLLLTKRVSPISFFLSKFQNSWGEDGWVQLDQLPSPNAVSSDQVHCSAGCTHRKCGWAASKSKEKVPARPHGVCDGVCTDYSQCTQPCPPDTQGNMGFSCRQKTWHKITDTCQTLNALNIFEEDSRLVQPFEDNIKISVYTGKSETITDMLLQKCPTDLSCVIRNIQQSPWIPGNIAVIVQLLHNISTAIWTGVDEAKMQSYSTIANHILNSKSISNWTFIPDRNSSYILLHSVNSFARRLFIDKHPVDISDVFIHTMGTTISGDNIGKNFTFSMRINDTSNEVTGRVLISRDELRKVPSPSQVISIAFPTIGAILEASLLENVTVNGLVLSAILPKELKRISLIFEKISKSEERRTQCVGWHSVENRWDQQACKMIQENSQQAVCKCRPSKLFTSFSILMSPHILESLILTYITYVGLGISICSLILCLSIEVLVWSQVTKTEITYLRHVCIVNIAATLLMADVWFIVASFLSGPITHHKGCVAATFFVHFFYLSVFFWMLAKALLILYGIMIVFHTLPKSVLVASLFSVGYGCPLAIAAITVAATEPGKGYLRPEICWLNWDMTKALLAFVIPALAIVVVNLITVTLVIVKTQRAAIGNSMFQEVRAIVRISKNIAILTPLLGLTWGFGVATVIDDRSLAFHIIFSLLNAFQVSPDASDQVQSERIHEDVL
Summary of the method: as §1

FFA2 = molecular target: T11, FFA2 (Homo sapiens, UniProt O15552)
T11 construct: purchased PRESTO-Tango GPCR kit (Roth lab / Addgene)
Summary of the method: as §1

GPR52 = molecular target: T12, GPR52 (Homo sapiens, UniProt Q9Y2T5)
T12 construct: purchased PRESTO-Tango GPCR kit (Roth lab / Addgene)
T12 sequence (Q9Y2T5 whole entry): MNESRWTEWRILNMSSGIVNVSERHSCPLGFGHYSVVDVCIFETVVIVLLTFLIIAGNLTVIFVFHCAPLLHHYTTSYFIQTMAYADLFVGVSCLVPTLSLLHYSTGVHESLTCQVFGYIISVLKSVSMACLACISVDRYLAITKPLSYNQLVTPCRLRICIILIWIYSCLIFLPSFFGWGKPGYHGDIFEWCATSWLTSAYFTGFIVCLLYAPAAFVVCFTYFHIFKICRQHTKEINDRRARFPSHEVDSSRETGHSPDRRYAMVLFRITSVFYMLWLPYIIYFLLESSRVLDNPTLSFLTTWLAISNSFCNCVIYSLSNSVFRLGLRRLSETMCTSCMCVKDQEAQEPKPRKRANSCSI
Summary of the method: as §1

GPR150 = molecular target: T13, GPR150 (Homo sapiens, UniProt Q8NGU9)
T13 construct: purchased PRESTO-Tango GPCR kit (Roth lab / Addgene)
Summary of the method: as §1

GPR113 = molecular target: T14, GPR113 (Homo sapiens, UniProt Q8IZF5)
T14 construct: purchased PRESTO-Tango GPCR kit (Roth lab / Addgene)
Summary of the method: as §1

MTNR1A = molecular target: T15, MTNR1A (Homo sapiens, UniProt P48039)
T15 construct: purchased PRESTO-Tango GPCR kit (Roth lab / Addgene)
T15 sequence (P48039 whole entry): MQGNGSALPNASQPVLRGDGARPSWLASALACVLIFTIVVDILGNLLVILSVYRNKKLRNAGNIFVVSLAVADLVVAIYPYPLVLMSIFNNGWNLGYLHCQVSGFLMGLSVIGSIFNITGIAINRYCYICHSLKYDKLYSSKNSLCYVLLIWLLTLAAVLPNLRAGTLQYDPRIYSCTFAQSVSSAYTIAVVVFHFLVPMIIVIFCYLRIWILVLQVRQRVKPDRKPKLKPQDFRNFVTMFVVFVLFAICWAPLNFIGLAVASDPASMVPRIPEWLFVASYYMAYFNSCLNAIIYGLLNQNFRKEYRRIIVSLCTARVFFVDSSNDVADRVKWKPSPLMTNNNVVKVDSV
Summary of the method: as §1

C3AR1 = molecular target: T16, C3AR1 (Homo sapiens, UniProt Q16581)
T16 construct: purchased PRESTO-Tango GPCR kit (Roth lab / Addgene)
Summary of the method: as §1

MC3R = molecular target: T17, MC3R (Homo sapiens, UniProt P41968)
T17 construct: purchased PRESTO-Tango GPCR kit (Roth lab / Addgene)
Summary of the method: as §1

NMBR = molecular target: T18, NMBR (Homo sapiens, UniProt P28336)
T18 construct: purchased PRESTO-Tango GPCR kit (Roth lab / Addgene)
T18 sequence (P28336 whole entry): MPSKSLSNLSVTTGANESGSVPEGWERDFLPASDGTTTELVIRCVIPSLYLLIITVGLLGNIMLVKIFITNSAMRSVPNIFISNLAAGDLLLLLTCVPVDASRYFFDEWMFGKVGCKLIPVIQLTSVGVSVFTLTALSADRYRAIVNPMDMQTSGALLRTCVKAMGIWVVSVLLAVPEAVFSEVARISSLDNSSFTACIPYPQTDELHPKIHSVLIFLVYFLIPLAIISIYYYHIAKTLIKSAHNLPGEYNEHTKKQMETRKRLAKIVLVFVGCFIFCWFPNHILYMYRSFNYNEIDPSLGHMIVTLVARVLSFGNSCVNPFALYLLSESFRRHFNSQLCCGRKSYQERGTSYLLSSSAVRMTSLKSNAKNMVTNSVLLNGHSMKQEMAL
Summary of the method: as §1

HTR1F = molecular target: T19, HTR1F (Homo sapiens, UniProt P30939)
T19 construct: purchased PRESTO-Tango GPCR kit (Roth lab / Addgene)
Summary of the method: as §1

MAS1L = molecular target: T20, MAS1L (Homo sapiens, UniProt P35410)
T20 construct: purchased PRESTO-Tango GPCR kit (Roth lab / Addgene)
Summary of the method: as §1

HTR2B = molecular target: T21, HTR2B (Homo sapiens, UniProt P41595)
T21 construct: purchased PRESTO-Tango GPCR kit (Roth lab / Addgene)
T21 sequence (P41595 whole entry): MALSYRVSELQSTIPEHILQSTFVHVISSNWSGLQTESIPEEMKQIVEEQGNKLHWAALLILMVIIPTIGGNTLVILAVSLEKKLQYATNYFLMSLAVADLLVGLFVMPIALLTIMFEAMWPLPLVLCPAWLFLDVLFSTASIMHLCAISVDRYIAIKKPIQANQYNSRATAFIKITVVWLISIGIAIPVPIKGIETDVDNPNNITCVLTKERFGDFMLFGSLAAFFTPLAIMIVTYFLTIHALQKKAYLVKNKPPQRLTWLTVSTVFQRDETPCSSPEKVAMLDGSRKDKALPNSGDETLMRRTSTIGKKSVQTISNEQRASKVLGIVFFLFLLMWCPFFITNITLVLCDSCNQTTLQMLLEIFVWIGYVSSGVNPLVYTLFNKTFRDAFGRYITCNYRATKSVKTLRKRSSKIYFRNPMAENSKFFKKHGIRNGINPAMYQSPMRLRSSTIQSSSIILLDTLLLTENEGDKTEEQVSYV
Summary of the method: as §1

CMKLR1 = molecular target: T22, CMKLR1 (Homo sapiens, UniProt Q99788)
T22 construct: purchased PRESTO-Tango GPCR kit (Roth lab / Addgene)
T22 sequence (Q99788 whole entry): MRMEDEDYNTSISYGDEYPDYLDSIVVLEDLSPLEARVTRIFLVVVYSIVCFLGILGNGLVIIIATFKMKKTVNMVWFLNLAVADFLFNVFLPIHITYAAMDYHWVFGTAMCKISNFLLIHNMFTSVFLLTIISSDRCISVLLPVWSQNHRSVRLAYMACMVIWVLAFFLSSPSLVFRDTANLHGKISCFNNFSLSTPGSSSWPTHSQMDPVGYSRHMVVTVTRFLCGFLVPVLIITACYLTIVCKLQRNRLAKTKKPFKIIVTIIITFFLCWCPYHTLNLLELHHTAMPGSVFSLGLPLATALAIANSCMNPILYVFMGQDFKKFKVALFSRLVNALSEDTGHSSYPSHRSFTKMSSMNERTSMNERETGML
Summary of the method: as §1

ADRA2B = molecular target: T23, ADRA2B (Homo sapiens, UniProt P18089)
T23 construct: purchased PRESTO-Tango GPCR kit (Roth lab / Addgene)
Summary of the method: as §1

ADORA3 = molecular target: T24, ADORA3 (Homo sapiens, UniProt P0DMS8)
T24 construct: purchased PRESTO-Tango GPCR kit (Roth lab / Addgene)
T24 sequence (P0DMS8 whole entry): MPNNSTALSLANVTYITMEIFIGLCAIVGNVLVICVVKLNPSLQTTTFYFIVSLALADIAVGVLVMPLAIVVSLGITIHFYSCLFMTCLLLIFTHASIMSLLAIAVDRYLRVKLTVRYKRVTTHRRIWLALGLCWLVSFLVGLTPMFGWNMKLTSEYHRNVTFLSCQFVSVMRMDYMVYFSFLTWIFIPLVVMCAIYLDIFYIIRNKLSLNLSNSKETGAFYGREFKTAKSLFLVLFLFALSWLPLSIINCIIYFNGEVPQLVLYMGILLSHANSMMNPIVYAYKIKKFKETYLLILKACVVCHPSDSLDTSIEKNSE
Summary of the method: as §1

GPR1 = molecular target: T25, GPR1 (Homo sapiens, UniProt P46091)
T25 construct: purchased PRESTO-Tango GPCR kit (Roth lab / Addgene)
Summary of the method: as §1

GPR161 = molecular target: T26, GPR161 (Homo sapiens, UniProt Q8N6U8)
T26 construct: purchased PRESTO-Tango GPCR kit (Roth lab / Addgene)
Summary of the method: as §1

OXGR1 = molecular target: T27, OXGR1 (Homo sapiens, UniProt Q96P68)
T27 construct: purchased PRESTO-Tango GPCR kit (Roth lab / Addgene)
Summary of the method: as §1

CCR7 = molecular target: T28, CCR7 (Homo sapiens, UniProt P32248)
T28 construct: purchased PRESTO-Tango GPCR kit (Roth lab / Addgene)
Summary of the method: as §1

FPR1 = molecular target: T29, FPR1 (Homo sapiens, UniProt P21462)
T29 construct: purchased PRESTO-Tango GPCR kit (Roth lab / Addgene)
T29 sequence (P21462 whole entry): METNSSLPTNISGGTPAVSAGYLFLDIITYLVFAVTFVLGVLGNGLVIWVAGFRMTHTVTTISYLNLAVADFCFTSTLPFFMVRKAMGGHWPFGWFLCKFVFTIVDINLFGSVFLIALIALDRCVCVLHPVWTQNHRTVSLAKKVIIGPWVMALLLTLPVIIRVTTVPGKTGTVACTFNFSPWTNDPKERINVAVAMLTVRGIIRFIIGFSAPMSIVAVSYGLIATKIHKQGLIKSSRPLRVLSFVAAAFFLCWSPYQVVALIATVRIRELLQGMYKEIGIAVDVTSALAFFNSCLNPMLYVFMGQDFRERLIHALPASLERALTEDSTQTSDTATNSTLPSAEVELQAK
Summary of the method: as §1

GPR126 = molecular target: T30, GPR126 (Homo sapiens, UniProt Q86SQ4)
T30 construct: purchased PRESTO-Tango GPCR kit (Roth lab / Addgene)
T30 sequence (Q86SQ4 38-1221): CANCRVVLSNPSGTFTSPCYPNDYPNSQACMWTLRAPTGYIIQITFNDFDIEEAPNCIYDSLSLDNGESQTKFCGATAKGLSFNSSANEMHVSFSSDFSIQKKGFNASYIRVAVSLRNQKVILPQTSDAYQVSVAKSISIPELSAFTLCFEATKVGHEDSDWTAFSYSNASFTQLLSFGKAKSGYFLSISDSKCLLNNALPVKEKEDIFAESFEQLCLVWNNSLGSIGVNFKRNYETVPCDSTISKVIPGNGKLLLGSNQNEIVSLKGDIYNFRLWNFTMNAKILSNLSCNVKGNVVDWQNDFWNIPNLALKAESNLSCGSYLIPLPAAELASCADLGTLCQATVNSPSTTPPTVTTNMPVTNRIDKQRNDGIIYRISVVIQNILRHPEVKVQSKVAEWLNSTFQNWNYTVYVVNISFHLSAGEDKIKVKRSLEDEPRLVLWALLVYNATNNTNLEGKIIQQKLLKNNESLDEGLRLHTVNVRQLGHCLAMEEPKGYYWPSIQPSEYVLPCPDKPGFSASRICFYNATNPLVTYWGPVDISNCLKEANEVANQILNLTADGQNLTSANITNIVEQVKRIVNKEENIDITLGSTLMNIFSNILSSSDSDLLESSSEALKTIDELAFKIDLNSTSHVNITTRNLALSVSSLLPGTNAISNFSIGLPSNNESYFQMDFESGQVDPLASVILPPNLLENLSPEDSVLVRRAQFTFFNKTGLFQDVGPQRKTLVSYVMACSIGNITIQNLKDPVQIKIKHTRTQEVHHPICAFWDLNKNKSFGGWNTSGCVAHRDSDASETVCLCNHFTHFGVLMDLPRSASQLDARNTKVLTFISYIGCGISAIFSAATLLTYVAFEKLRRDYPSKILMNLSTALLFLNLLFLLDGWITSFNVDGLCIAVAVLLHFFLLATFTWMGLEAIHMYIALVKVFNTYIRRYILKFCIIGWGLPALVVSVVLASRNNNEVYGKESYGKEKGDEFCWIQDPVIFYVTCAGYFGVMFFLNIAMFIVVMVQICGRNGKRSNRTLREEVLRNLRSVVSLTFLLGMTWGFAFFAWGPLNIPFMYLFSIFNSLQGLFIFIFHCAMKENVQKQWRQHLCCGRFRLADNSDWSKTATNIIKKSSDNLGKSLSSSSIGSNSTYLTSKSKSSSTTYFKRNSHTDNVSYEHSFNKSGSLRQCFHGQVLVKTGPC
Summary of the method: as §1

OPN3 = molecular target: T31, OPN3 (Homo sapiens, UniProt Q9H1Y3)
T31 construct: purchased PRESTO-Tango GPCR kit (Roth lab / Addgene)
Summary of the method: as §1

F2RL3 = molecular target: T32, F2RL3 (Homo sapiens, UniProt Q96RI0)
T32 construct: purchased PRESTO-Tango GPCR kit (Roth lab / Addgene)
Summary of the method: as §1

GPR77 = molecular target: T33, GPR77 (Homo sapiens, UniProt Q9P296)
T33 construct: purchased PRESTO-Tango GPCR kit (Roth lab / Addgene)
Summary of the method: as §1

NPBW2 = molecular target: T34, NPBW2 (Homo sapiens, UniProt P48146)
T34 construct: purchased PRESTO-Tango GPCR kit (Roth lab / Addgene)
Summary of the method: as §1

CCR8 = molecular target: T35, CCR8 (Homo sapiens, UniProt P51685)
T35 construct: purchased PRESTO-Tango GPCR kit (Roth lab / Addgene)
Summary of the method: as §1

NPY5R = molecular target: T36, NPY5R (Homo sapiens, UniProt Q15761)
T36 construct: purchased PRESTO-Tango GPCR kit (Roth lab / Addgene)
Summary of the method: as §1

SMILES	GPCR activation (heatmap value) (DRD2)	GPCR activation (heatmap value) (AVPR1B)	GPCR activation (heatmap value) (MCHR1)	GPCR activation (heatmap value) (GPR83)	GPCR activation (heatmap value) (CHRM4)	GPCR activation (heatmap value) (GPR37)	GPCR activation (heatmap value) (HTR7)	GPCR activation (heatmap value) (GPR151)	GPCR activation (heatmap value) (CCRL2)	GPCR activation (heatmap value) (GPR111)	GPCR activation (heatmap value) (FFA2)	GPCR activation (heatmap value) (GPR52)	GPCR activation (heatmap value) (GPR150)	GPCR activation (heatmap value) (GPR113)	GPCR activation (heatmap value) (MTNR1A)	GPCR activation (heatmap value) (C3AR1)	GPCR activation (heatmap value) (MC3R)	GPCR activation (heatmap value) (NMBR)	GPCR activation (heatmap value) (HTR1F)	GPCR activation (heatmap value) (MAS1L)	also measured
CC(C)Cc1ncc(CCCNC(=N)N)[nH]c1=O [compound 3]	0.05842	0.6298	-0.2593	-0.04196	0.4059	-0.4356	-0.07329	-0.03391	0.3717	-1.0133	-0.009625	0.9036	-0.9206	-0.04557	0.3857	-0.2058	0.4161	0.762	0.1369	-0.3942	GPCR activation (heatmap value) (HTR2B): -0.6262; GPCR activation (heatmap value) (CMKLR1): 0.8088; GPCR activation (heatmap value) (ADRA2B): 2.203; GPCR activation (heatmap value) (ADORA3): -0.3342; GPCR activation (heatmap value) (GPR1): -0.7172; GPCR activation (heatmap value) (GPR161): 0.1774; GPCR activation (heatmap value) (OXGR1): -0.2265; GPCR activation (heatmap value) (CCR7): -2.336; GPCR activation (heatmap value) (FPR1): 0.7196; GPCR activation (heatmap value) (GPR126): -0.3797; GPCR activation (heatmap value) (OPN3): 0.9288; GPCR activation (heatmap value) (F2RL3): 0.3497; GPCR activation (heatmap value) (GPR77): 0.5685; GPCR activation (heatmap value) (NPBW2): -0.2074; GPCR activation (heatmap value) (CCR8): -0.8888; GPCR activation (heatmap value) (NPY5R): 0.08813
CC(C)Cc1ncc(CCCCNC(=N)N)[nH]c1=O [3-Homo]	-0.9836	-0.01402	-1.3275	0.2309	0.08984	-0.008314	0.09912	0.4419	0.009703	-0.06522	-0.3322	0.2473	-0.9768	-0.1784	-0.06354	-0.001199	-0.2762	0.06446	-0.1727	0.1505	GPCR activation (heatmap value) (HTR2B): -0.5052; GPCR activation (heatmap value) (CMKLR1): -1.034; GPCR activation (heatmap value) (ADRA2B): -0.5041; GPCR activation (heatmap value) (ADORA3): -0.404; GPCR activation (heatmap value) (GPR1): 0.03802; GPCR activation (heatmap value) (GPR161): 0.03788; GPCR activation (heatmap value) (OXGR1): 0.2343; GPCR activation (heatmap value) (CCR7): -1.001; GPCR activation (heatmap value) (FPR1): -1.272; GPCR activation (heatmap value) (GPR126): 0.0787; GPCR activation (heatmap value) (OPN3): 0.7317; GPCR activation (heatmap value) (F2RL3): -0.0006117; GPCR activation (heatmap value) (GPR77): 0.08307; GPCR activation (heatmap value) (NPBW2): -0.3796; GPCR activation (heatmap value) (CCR8): -1.739; GPCR activation (heatmap value) (NPY5R): -0.26
